# Laboratory results as given in ChEMBL document CHEMBL4308841, “Synthesis, in vitro antiproliferative activity, and kinase inhibitory effects of pyrazole-containing diarylureas and diarylamides” (Eur J Med Chem, 2018).
# Legend:
# Malme-3M = test: Growth inhibition of human MALME-3M cells assessed as cell growth at 0.1 uM incubated for 48 hrs by sulforhodamine B assay relative to control; type: functional; settings: read-out: Activity
# SF-539 = test: Growth inhibition of human SF539 cells assessed as cell growth at 100 uM incubated for 48 hrs by sulforhodamine B assay relative to control; type: functional; settings: SF-539, 48 h, read-out: Activity
# 786-0 [1] = test: Growth inhibition of human 786-0 cells assessed as cell growth at 1 uM incubated for 48 hrs by sulforhodamine B assay relative to control; type: functional; settings: 786-0, 48 h, read-out: Activity
# CAKI-1 [2] = test: Growth inhibition of human Caki1 cells assessed as cell growth at 1 uM incubated for 48 hrs by sulforhodamine B assay relative to control; type: functional; settings: CAKI-1, 48 h, read-out: Activity
# K562 [3] = test: Growth inhibition of human K562 cells assessed as cell growth at 0.01 uM incubated for 48 hrs by sulforhodamine B assay relative to control; type: functional; settings: K562, 48 h, read-out: Activity
# UACC-257 = test: Growth inhibition of human UACC257 cells assessed as cell growth at 0.1 uM incubated for 48 hrs by sulforhodamine B assay relative to control; type: functional; settings: UACC-257, 48 h, read-out: Activity
# SK-OV-3 = test: Growth inhibition of human SKOV3 cells assessed as cell growth at 0.1 uM incubated for 48 hrs by sulforhodamine B assay relative to control; type: functional; settings: SK-OV-3, 48 h, read-out: Activity
# UACC-62 = test: Growth inhibition of human UACC62 cells assessed as cell growth at 0.1 uM incubated for 48 hrs by sulforhodamine B assay relative to control; type: functional; settings: UACC-62, 48 h, read-out: Activity
# OVCAR-8 = test: Growth inhibition of human OVCAR8 cells assessed as cell growth at 0.1 uM incubated for 48 hrs by sulforhodamine B assay relative to control; type: functional; settings: OVCAR-8, 48 h, read-out: Activity
# NCI-H522 = test: Growth inhibition of human NCI-H522 cells assessed as cell growth at 0.01 uM incubated for 48 hrs by sulforhodamine B assay relative to control; type: functional; settings: NCI-H522, 48 h, read-out: Activity
# K562 [4] = test: Growth inhibition of human K562 cells assessed as cell growth at 1 uM incubated for 48 hrs by sulforhodamine B assay relative to control; type: functional; settings: K562, 48 h, read-out: Activity
# COLO 205 [5] = test: Growth inhibition of human COLO205 cells assessed as cell growth at 1 uM incubated for 48 hrs by sulforhodamine B assay relative to control; type: functional; settings: COLO 205, 48 h, read-out: Activity
# M14 = test: Growth inhibition of human M14 cells incubated for 48 hrs by sulforhodamine B assay; type: functional, cell-based; settings: M14, 48 h
# SK-MEL-28 = test: Growth inhibition of human SK-MEL-28 cells assessed as cell growth at 100 uM incubated for 48 hrs by sulforhodamine B assay relative to control; type: functional; settings: SK-MEL-28, 48 h, read-out: Activity
# LOX IMVI [6] = test: Growth inhibition of human LOXIMVI cells incubated for 48 hrs by sulforhodamine B assay; type: functional
# HOP-62 = test: Growth inhibition of human HOP62 cells assessed as cell growth at 100 uM incubated for 48 hrs by sulforhodamine B assay relative to control; type: functional; settings: HOP-62, 48 h, read-out: Activity
# COLO 205 [7] = test: Growth inhibition of human COLO205 cells incubated for 48 hrs by sulforhodamine B assay; type: functional, cell-based; settings: COLO 205, 48 h
# NCI-H23 = test: Growth inhibition of human NCI-H23 cells assessed as cell growth at 0.01 uM incubated for 48 hrs by sulforhodamine B assay relative to control; type: functional; settings: NCI-H23, 48 h, read-out: Activity
# CAKI-1 [8] = test: Growth inhibition of human Caki1 cells assessed as cell growth at 0.1 uM incubated for 48 hrs by sulforhodamine B assay relative to control; type: functional; settings: CAKI-1, 48 h, read-out: Activity
# HCT-116 = test: Growth inhibition of human HCT116 cells incubated for 48 hrs by sulforhodamine B assay; type: functional, cell-based; settings: HCT-116, 48 h
# NCI/ADR-RES = test: Growth inhibition of human NCI/ADR-RES cells assessed as cell growth at 0.1 uM incubated for 48 hrs by sulforhodamine B assay relative to control; type: functional; settings: read-out: Activity
# MDA-MB-468 = test: Growth inhibition of human MDA-MB-468 cells assessed as cell growth at 1 uM incubated for 48 hrs by sulforhodamine B assay relative to control; type: functional; settings: MDA-MB-468, 48 h, read-out: Activity
# U-251 = test: Growth inhibition of human U251 cells incubated for 48 hrs by sulforhodamine B assay; type: functional, cell-based; settings: U-251, 48 h
# DU-145 = test: Growth inhibition of human DU145 cells assessed as cell growth at 0.1 uM incubated for 48 hrs by sulforhodamine B assay relative to control; type: functional; settings: DU-145, 48 h, read-out: Activity
# LOX IMVI [9] = test: Growth inhibition of human LOXIMVI cells assessed as cell growth at 1 uM incubated for 48 hrs by sulforhodamine B assay relative to control; type: functional; settings: read-out: Activity
# MCF7 [10] = test: Growth inhibition of human MCF7 cells assessed as cell growth at 0.1 uM incubated for 48 hrs by sulforhodamine B assay relative to control; type: functional; settings: MCF7, 48 h, read-out: Activity
# 786-0 [11] = test: Growth inhibition of human 786-0 cells assessed as cell growth at 0.1 uM incubated for 48 hrs by sulforhodamine B assay relative to control; type: functional; settings: 786-0, 48 h, read-out: Activity
# ACHN = test: Growth inhibition of human ACHN cells incubated for 48 hrs by sulforhodamine B assay; type: functional, cell-based
# NCI-H226 = test: Growth inhibition of human NCI-H226 cells assessed as cell growth at 0.01 uM incubated for 48 hrs by sulforhodamine B assay relative to control; type: functional; settings: NCI-H226, 48 h, read-out: Activity
# MCF7 [12] = test: Growth inhibition of human MCF7 cells assessed as cell growth at 0.01 uM incubated for 48 hrs by sulforhodamine B assay relative to control; type: functional; settings: MCF7, 48 h, read-out: Activity
# [13] = read-out: LC50 (the source's name)
# [14] = read-out: pLC50 (the source's name) (converted)
smiles,measurement,setting,value
COc1cc(Cl)cc(-c2nn(-c3cccc(NC(=O)Nc4cccc(C(F)(F)F)c4)c3)cc2-c2ccncc2)c1,growth at 0.1 µM,Malme-3M,50%
same,growth at 100 µM,SF-539,-72%
same,growth at 1 µM,786-0 [1],77%
same,growth at 1 µM,CAKI-1 [2],57%
same,growth at 0.01 µM,K562 [3],104%
same,growth at 0.1 µM,UACC-257,94%
same,growth at 0.1 µM,SK-OV-3,98%
same,growth at 0.1 µM,UACC-62,96%
same,growth at 0.1 µM,OVCAR-8,99%
same,growth at 0.01 µM,NCI-H522,95%
same,growth at 1 µM,K562 [4],45%
same,growth at 1 µM,COLO 205 [5],79%
same,GI50,M14; read-out: GI50,1.34 µM
same,CC50,M14; [13],15.3 µM
same,TGI,M14; read-out: TGI,30.5 µM
same,GI50,M14; read-out: pGI50 (converted),1.35 µM
same,CC50,M14; [14],16.2 µM
same,TGI,M14; read-out: pTGI (converted),3.98 µM
same,growth at 100 µM,SK-MEL-28,-25%
same,GI50,LOX IMVI [6]; read-out: GI50,1.51 µM
same,CC50,LOX IMVI [6]; [13],82.8 µM
same,TGI,LOX IMVI [6]; read-out: TGI,70.4 µM
same,GI50,LOX IMVI [6]; read-out: pGI50 (converted),1.82 µM
same,CC50,LOX IMVI [6]; [14],83.2 µM
same,TGI,LOX IMVI [6]; read-out: pTGI (converted),7.08 µM
same,growth at 100 µM,HOP-62,-41%
same,GI50,COLO 205 [7]; read-out: GI50,1.53 µM
same,CC50,COLO 205 [7]; [13],65.5 µM
same,TGI,COLO 205 [7]; read-out: TGI,31.7 µM
same,GI50,COLO 205 [7]; read-out: pGI50 (converted),1.51 µM
same,CC50,COLO 205 [7]; [14],6.61 µM
same,TGI,COLO 205 [7]; read-out: pTGI (converted),3.16 µM
same,growth at 0.01 µM,NCI-H23,97%
same,growth at 0.1 µM,CAKI-1 [8],104%
same,IC50,HCT-116,0.75 µM
same,GI50,HCT-116; read-out: GI50,0.754 µM
same,CC50,HCT-116; [13],35.7 µM
same,TGI,HCT-116; read-out: TGI,75.1 µM
same,GI50,HCT-116; read-out: pGI50 (converted),0.759 µM
same,CC50,HCT-116; [14],38.9 µM
same,TGI,HCT-116; read-out: pTGI (converted),7.59 µM
same,growth at 0.1 µM,NCI/ADR-RES,98%
same,growth at 1 µM,MDA-MB-468,51%
same,IC50,U-251,0.88 µM
same,GI50,U-251; read-out: GI50,0.679 µM
same,CC50,U-251; [13],89.4 µM
same,TGI,U-251; read-out: TGI,29.1 µM
same,GI50,U-251; read-out: pGI50 (converted),0.891 µM
same,CC50,U-251; [14],8.91 µM
same,TGI,U-251; read-out: pTGI (converted),2.88 µM
same,growth at 0.1 µM,DU-145,99%
same,growth at 1 µM,LOX IMVI [9],72%
same,growth at 0.1 µM,MCF7 [10],102%
same,growth at 0.1 µM,786-0 [11],99%
same,GI50,ACHN; read-out: GI50,1.72 µM
same,CC50,ACHN; [13],> 100 µM
same,TGI,ACHN; read-out: TGI,15.2 µM
same,GI50,ACHN; read-out: pGI50 (converted),1.7 µM
same,CC50,ACHN; [14],> 100 µM
same,TGI,ACHN; read-out: pTGI (converted),16.2 µM
same,growth at 0.01 µM,NCI-H226,95%
same,growth at 0.01 µM,MCF7 [12],91%
O=C(Nc1cccc(-n2cc(-c3ccncc3)c(-c3cc(O)cc(Cl)c3)n2)c1)Nc1ccc(Cl)c(C(F)(F)F)c1,growth at 0.1 µM,Malme-3M,81%
same,growth at 100 µM,SF-539,-50%
same,growth at 1 µM,786-0 [1],84%
same,growth at 1 µM,CAKI-1 [2],98%
same,growth at 0.01 µM,K562 [3],101%
same,growth at 0.1 µM,UACC-257,91%
same,growth at 0.1 µM,SK-OV-3,104%
same,growth at 0.1 µM,UACC-62,102%
same,growth at 0.1 µM,OVCAR-8,100%
same,growth at 0.01 µM,NCI-H522,56%
same,growth at 1 µM,K562 [4],55%
same,growth at 1 µM,COLO 205 [5],99%
same,GI50,M14; read-out: GI50,1.72 µM
same,CC50,M14; [13],55.8 µM
same,TGI,M14; read-out: TGI,38.8 µM
same,GI50,M14; read-out: pGI50 (converted),1.7 µM
same,CC50,M14; [14],8.71 µM
same,TGI,M14; read-out: pTGI (converted),3.89 µM
same,growth at 100 µM,SK-MEL-28,-89%
same,GI50,LOX IMVI [6]; read-out: GI50,1.97 µM
same,CC50,LOX IMVI [6]; [13],95.5 µM
same,TGI,LOX IMVI [6]; read-out: TGI,43.6 µM
same,GI50,LOX IMVI [6]; read-out: pGI50 (converted),1.95 µM
same,CC50,LOX IMVI [6]; [14],9.55 µM
same,TGI,LOX IMVI [6]; read-out: pTGI (converted),4.37 µM
same,growth at 100 µM,HOP-62,-12%
same,GI50,COLO 205 [7]; read-out: GI50,2.25 µM
same,CC50,COLO 205 [7]; [13],15.9 µM
same,TGI,COLO 205 [7]; read-out: TGI,51.7 µM
same,GI50,COLO 205 [7]; read-out: pGI50 (converted),2.82 µM
same,CC50,COLO 205 [7]; [14],19.1 µM
same,TGI,COLO 205 [7]; read-out: pTGI (converted),5.13 µM
same,growth at 0.01 µM,NCI-H23,92%
same,growth at 0.1 µM,CAKI-1 [8],103%
same,IC50,HCT-116,1.96 µM
same,GI50,HCT-116; read-out: GI50,1.96 µM
same,CC50,HCT-116; [13],10.7 µM
same,TGI,HCT-116; read-out: TGI,44.7 µM
same,GI50,HCT-116; read-out: pGI50 (converted),1.95 µM
same,CC50,HCT-116; [14],10.7 µM
same,TGI,HCT-116; read-out: pTGI (converted),4.47 µM
same,growth at 0.1 µM,NCI/ADR-RES,92%
same,growth at 1 µM,MDA-MB-468,75%
same,IC50,U-251,1.72 µM
same,GI50,U-251; read-out: GI50,1.72 µM
same,CC50,U-251; [13],77.5 µM
same,TGI,U-251; read-out: TGI,30 µM
same,GI50,U-251; read-out: pGI50 (converted),1.74 µM
same,CC50,U-251; [14],7.76 µM
same,TGI,U-251; read-out: pTGI (converted),3.63 µM
same,growth at 0.1 µM,DU-145,99%
same,growth at 1 µM,LOX IMVI [9],93%
same,growth at 0.1 µM,MCF7 [10],91%
same,growth at 0.1 µM,786-0 [11],95%
same,GI50,ACHN; read-out: GI50,3.1 µM
same,CC50,ACHN; [13],> 100 µM
same,TGI,ACHN; read-out: TGI,15.3 µM
same,GI50,ACHN; read-out: pGI50 (converted),3.09 µM
same,CC50,ACHN; [14],> 100 µM
same,TGI,ACHN; read-out: pTGI (converted),15.1 µM
same,growth at 0.01 µM,NCI-H226,97%
same,growth at 0.01 µM,MCF7 [12],90%
